{"source": "patent US12612380B2", "about": "“Non-lysosomal glucosylceramidase inhibitors and uses thereof” (ALECTOS THERAPEUTICS INC., priority 2019, dated 2026)", "data": [{"biological_target": "T1, GBA2 (Homo sapiens, UniProt Q9HCG7)", "T1 sequence (Q9HCG7 1-927)": "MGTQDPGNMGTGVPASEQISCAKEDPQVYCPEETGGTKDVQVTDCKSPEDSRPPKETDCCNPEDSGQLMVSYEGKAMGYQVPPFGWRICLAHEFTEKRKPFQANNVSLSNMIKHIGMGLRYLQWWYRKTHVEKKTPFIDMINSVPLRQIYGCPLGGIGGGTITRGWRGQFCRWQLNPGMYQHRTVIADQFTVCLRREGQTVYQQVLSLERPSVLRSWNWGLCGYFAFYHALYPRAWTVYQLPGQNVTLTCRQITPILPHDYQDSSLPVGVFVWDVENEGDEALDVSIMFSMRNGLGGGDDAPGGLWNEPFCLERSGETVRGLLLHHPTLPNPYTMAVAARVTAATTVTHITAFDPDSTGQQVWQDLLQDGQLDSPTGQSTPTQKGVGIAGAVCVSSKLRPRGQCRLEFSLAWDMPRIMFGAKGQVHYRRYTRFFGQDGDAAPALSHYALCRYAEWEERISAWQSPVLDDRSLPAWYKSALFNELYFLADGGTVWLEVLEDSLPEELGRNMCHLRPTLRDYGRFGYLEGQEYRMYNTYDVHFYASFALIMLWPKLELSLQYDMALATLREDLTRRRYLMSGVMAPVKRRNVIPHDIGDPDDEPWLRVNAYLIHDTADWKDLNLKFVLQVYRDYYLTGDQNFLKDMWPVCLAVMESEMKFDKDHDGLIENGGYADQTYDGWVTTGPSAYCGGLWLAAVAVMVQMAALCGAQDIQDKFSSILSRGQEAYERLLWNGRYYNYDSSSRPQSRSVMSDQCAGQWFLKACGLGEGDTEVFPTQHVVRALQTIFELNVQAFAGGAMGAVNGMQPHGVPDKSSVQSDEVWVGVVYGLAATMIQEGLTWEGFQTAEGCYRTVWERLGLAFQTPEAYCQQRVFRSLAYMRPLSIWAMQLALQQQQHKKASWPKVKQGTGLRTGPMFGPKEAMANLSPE", "assay": "Determination of IC50 values for inhibition of GBA2 in cell lysate", "type": "biochemical", "design": "host or cells: HEK293T (lentiviral transduction, puromycin selection); used as cellular homogenate", "settings": "cellular homogenate of HEK293T cells overexpressing human GBA2, 250 μM 4-methylumbelliferone-β-D glucopyranoside, pH 5.5, 37° C., GCase inhibitor present; read-out: GBA2 IC50", "source_text": "Assay for Determination of IC50 Values for Inhibition of GBA2 in Cell Lysate\nStable GBA2-expressing HEK293T cells were generated as follows. The PCR-amplified human GBA2 (GBA2 nucleotide accession number BC011363) using the following primers: Sense 5′---CGCAAATGGGCGGTAGGCGTG (SEQ ID NO:2)---3′ and antisense 5′---TAGTCAGCCATGGGGCGGAGA (SEQ ID NO:3)---3′) was cloned into pLenti-GIII-CMV by ABM Inc. The correctness of the construct was verified by sequencing. Lentivirus particles containing GBA2 in the pLenti-GIII-CMV plasmid were prepared using a third Generation Virus Packaging Mix (ABM cat #LV053-G074) in HEK293T cells and supplied as a virus particle suspension. The virus suspension was used for infection of HEK293T cells. Cell populations stably expressing human GBA2 were selected using puromycin for several weeks as determined by activity assays and western blot.\nVarious concentrations of test compounds were prepared in DMSO and then diluted into buffer consisting of 100 mM citric acid, 200 mM disodium phosphate with 1% v/v C10E6, pH 5.5. Cellular homogenates (0.25 mg/mL) of the stable HEK293T-overexpressing GBA2 cell line were preincubated for 10 min on ice with an inhibitor of GCase (20 μM (6R,7R,8S)-8-ethyl-4-azaspiro[2.5]octane-6,7-diol). The reaction solution consisted of 20 μL of 750 μM 4-methylumbelliferone-β-D glucopyranoside in 5% DMSO in the same buffer, 20 μL of GBA2-cellular homogenate pre-treated with (6R,7R,8S)-8-ethyl-4-azaspiro[2.5]octane-6,7-diol and 20 μL of various concentrations of test compound in 10% DMSO in the same buffer. The final concentrations in the reaction were 0.083 mg/mL GBA2-cellular homogenate, 250 μM 4-methylumbelliferone-β-D glucopyranoside, and various concentrations of inhibitor. The inhibitor and GBA2-cellular homogenate were preincubated together for 5 min at 37° C. The reaction was initiated by addition of substrate and allowed to proceed for 20 min at 37° C. to assess GBA2 activity. Reactions were stopped by the addition of an equal volume (60 μL) of 0.5 M NaOH, 0.3 M glycine, pH 10.5. Fluorescence was measured on a Biotek Synergy H4 plate reader at wavelengths of 365 nm for excitation and 450 nm for emission. Incubations without added enzyme or added inhibitors were used to define no enzyme activity and maximal enzyme activity, respectively. IC50 values were determined by fitting the data to a log[inhibitor concentration] versus response curve using GraphPad Prism. IC50 values were calculated as the concentration of inhibitor required to inhibit GBA2 activity by 50%.", "units": {"IC50": "nM"}, "values": [{"smiles": "C[C@@H]1[C@@H](O)[C@H](O)[C@@H](O)CN1CC1CCCCC1", "note": "[Example 1, (2R,3R,4R,5S)-1-(cyclohexylmethyl)-2-methylpiperidine-3,4,5-triol]", "IC50": "100 to 1000"}, {"smiles": "C[C@@H]1[C@@H](O)[C@H](O)[C@@H](O)CN1CC1CCC(C)(C)CC1", "note": "[Example 2, (2R,3R,4R,5S)-1-((4,4-dimethylcyclohexyl)methyl)-2-methylpiperidine-3,4,5-triol]", "IC50": "100 to 1000"}, {"smiles": "C[C@@H]1[C@@H](O)[C@H](O)[C@@H](O)CN1CC1CCC(F)(F)CC1", "note": "[Example 3, (2R,3R,4R,5S)-1-((4,4-difluorocyclohexyl)methyl)-2-methylpiperidine-3,4,5-triol]", "IC50": "1000 to 25000"}, {"smiles": "C[C@@H]1[C@@H](O)[C@H](O)[C@@H](O)CN1CC1CCC(Cl)(Cl)CC1", "note": "[Example 4, (2R,3R,4R,5S)-1-((4,4-dichlorocyclohexyl)methyl)-2-methylpiperidine-3,4,5-triol]", "IC50": "< 100"}, {"smiles": "CCC1CCC(CN2C[C@H](O)[C@@H](O)[C@H](O)[C@H]2C)CC1", "note": "(stereo partly drawn) [Example 5, (2R,3R,4R,5S)-1-((4-ethylcyclohexyl)methyl)-2-methylpiperidine-3,4,5-triol]", "IC50": "< 100"}, {"smiles": "C=C[C@H]1CC[C@@H](CN2C[C@H](O)[C@@H](O)[C@H](O)[C@H]2C)CC1", "note": "[Example 6, (2R,3R,4R,5S)-2-methyl-1-(((1s,4S)-4-vinylcyclohexyl)methyl)piperidine-3,4,5-triol]", "IC50": "< 100"}, {"smiles": "CC(C)[C@H]1CC[C@H](CN2C[C@H](O)[C@@H](O)[C@H](O)[C@H]2C)CC1", "note": "[Example 8, (2R,3R,4R,5S)-1-(((1r,4R)-4-isopropylcyclohexyl)methyl)-2-methylpiperidine-3,4,5-triol]", "IC50": "< 100"}, {"smiles": "C[C@@H]1[C@@H](O)[C@H](O)[C@@H](O)CN1C[C@H]1CC[C@H](C(C)(C)C)CC1", "note": "[Example 10, (2R,3R,4R,5S)-1-(((1r,4R)-4-(tert-butyl)cyclohexyl)methyl)-2-methylpiperidine-3,4,5-triol]", "IC50": "< 100"}, {"smiles": "C[C@@H]1[C@@H](O)[C@H](O)[C@@H](O)CN1C[C@H]1CC[C@H](C(C)(C)F)CC1", "note": "[Example 14, (2R,3R,4R,5S)-1-(((1r,4R)-4-(2-fluoropropan-2-yl)cyclohexyl)methyl)-2-methylpiperidine-3,4,5-triol]", "IC50": "< 100"}, {"smiles": "C[C@@H]1[C@@H](O)[C@H](O)[C@@H](O)CN1C[C@H]1CCC[C@H](C(F)(F)F)C1", "note": "[Example 15, (2R,3R,4R,5S)-2-methyl-1-(((trans)-3-(trifluoromethyl)cyclohexyl)methyl)piperidine-3,4,5-triol]", "IC50": "< 100"}, {"smiles": "C[C@@H]1[C@@H](O)[C@H](O)[C@@H](O)CN1C[C@H]1CCC[C@@H](C(F)(F)F)C1", "note": "[Example 16, (2R,3R,4R,5S)-2-methyl-1-(((cis)-3-(trifluoromethyl)cyclohexyl)methyl)piperidine-3,4,5-triol]", "IC50": "100 to 1000"}, {"smiles": "CO[C@H]1CC[C@@H](CN2C[C@H](O)[C@@H](O)[C@H](O)[C@H]2C)CC1", "note": "[Example 17, (2R,3R,4R,5S)-1-(((1s,4S)-4-methoxycyclohexyl)methyl)-2-methylpiperidine-3,4,5-triol]", "IC50": "1000 to 25000"}, {"smiles": "CO[C@H]1CC[C@H](CN2C[C@H](O)[C@@H](O)[C@H](O)[C@H]2C)CC1", "note": "[Example 18, (2R,3R,4R,5S)-1-(((1r,4R)-4-methoxycyclohexyl)methyl)-2-methylpiperidine-3,4,5-triol]", "IC50": "1000 to 25000"}, {"smiles": "COCC1CCC(CN2C[C@H](O)[C@@H](O)[C@H](O)[C@H]2C)CC1", "note": "(stereo partly drawn) [Example 19, (2R,3R,4R,5S)-1-((4-(methoxymethyl)cyclohexyl)methyl)-2-methylpiperidine-3,4,5-triol]", "IC50": "100 to 1000"}, {"smiles": "C[C@@H]1[C@@H](O)[C@H](O)[C@@H](O)CN1C[C@H]1CC[C@H](C2CC2)CC1", "note": "[Example 21, (2R,3R,4R,5S)-1-(((1r,4R)-4-cyclopropylcyclohexyl)methyl)-2-methylpiperidine-3,4,5-triol]", "IC50": "< 100"}, {"smiles": "C[C@@H]1[C@@H](O)[C@H](O)[C@@H](O)CN1CC1CCC(c2ccccc2)CC1", "note": "(stereo partly drawn) [Example 22, (2R,3R,4R,5S)-2-methyl-1-((4-phenylcyclohexyl)methyl)piperidine-3,4,5-triol]", "IC50": "< 100"}, {"smiles": "C[C@@H]1[C@@H](O)[C@H](O)[C@@H](O)CN1CC1CCC2(CC1)CC2", "note": "[Example 23, (2R,3R,4R,5S)-2-methyl-1-(spiro[2.5]octan-6-ylmethyl)piperidine-3,4,5-triol]", "IC50": "100 to 1000"}, {"smiles": "C[C@@H]1[C@@H](O)[C@H](O)[C@@H](O)CN1CC1CCC2(CCCC2)CC1", "note": "[Example 25, (2R,3R,4R,5S)-2-methyl-1-(spiro[4.5]decan-8-ylmethyl)piperidine-3,4,5-triol]", "IC50": "< 100"}, {"smiles": "C[C@@H]1[C@@H](O)[C@H](O)[C@@H](O)CN1C[C@H]1CC[C@]2(CC1)COC(C)(C)C2", "note": "[Example 26, (2R,3R,4R,5S)-1-(((5S,8s)-3,3-dimethyl-2-oxaspiro[4.5]decan-8-yl)methyl)-2-methylpiperidine-3,4,5-triol]", "IC50": "100 to 1000"}, {"smiles": "C[C@@H]1[C@@H](O)[C@H](O)[C@@H](O)CN1CC1CCc2ccccc2C1", "note": "(stereo partly drawn) [Example 27, (2R,3R,4R,5S)-2-methyl-1-((1,2,3,4-tetrahydronaphthalen-2-yl)methyl)piperidine-3,4,5-triol]", "IC50": "< 100"}, {"smiles": "C[C@@H]1[C@@H](O)[C@H](O)[C@@H](O)CN1CC1Cc2ccccc2C1", "note": "[Example 28, (2R,3R,4R,5S)-1-((2,3-dihydro-1H-inden-2-yl)methyl)-2-methylpiperidine-3,4,5-triol]", "IC50": "< 100"}, {"smiles": "C[C@@H]1[C@@H](O)[C@H](O)[C@@H](O)CN1CCC1CCCCC1", "note": "[Example 29, (2R,3R,4R,5S)-1-(2-cyclohexylethyl)-2-methylpiperidine-3,4,5-triol]", "IC50": "100 to 1000"}, {"smiles": "C[C@@H]1[C@@H](O)[C@H](O)[C@@H](O)CN1CCC1CCC(F)(F)CC1", "note": "[Example 30, (2R,3R,4R,5S)-1-(2-(4,4-difluorocyclohexyl)ethyl)-2-methylpiperidine-3,4,5-triol]", "IC50": "100 to 1000"}, {"smiles": "C[C@@H]1[C@@H](O)[C@H](O)[C@@H](O)CN1CC[C@H]1CC[C@@H](C(F)(F)F)CC1", "note": "[Example 31, (2R,3R,4R,5S)-2-methyl-1-(2-((1s,4S)-4-(trifluoromethyl)cyclohexyl)ethyl)piperidine-3,4,5-triol]", "IC50": "< 100"}, {"smiles": "C[C@@H]1[C@@H](O)[C@H](O)[C@@H](O)CN1CC[C@H]1CC[C@H](C(F)(F)F)CC1", "note": "[Example 32, (2R,3R,4R,5S)-2-methyl-1-(2-((1r,4R)-4-(trifluoromethyl)cyclohexyl)ethyl)piperidine-3,4,5-triol]", "IC50": "< 100"}, {"smiles": "C[C@@H]1[C@@H](O)[C@H](O)[C@@H](O)CN1CCC12CC3CC(CC(C3)C1)C2", "note": "[Example 33, (2R,3R,4R,5S)-1-((2-adamantan-1-yl)ethyl)-2-methylpiperidine-3,4,5-triol]", "IC50": "< 100"}]}]}
